Experimental data reported in US6083920A, “Compositions for modulating intracellular inositol trisphosphate concentration” (priority 1996, dated 2000).

Experiments:
[1] = tested on: calcium ion signalling in cortical neurons; test: Metabotropic receptor function: calcium ion signalling (fura 2) in intact cortical neurons; type: cell-based, chick; conditions: neurons loaded to 150±20 pmoles per mg protein; 10 μM glutamate agonist 30 minutes
Description: Metabotropic receptor function was examined in intact neurons by assaying lysosphingolipid modulation of calcium ion signalling. Approximately 1×10^6 cortical neurons were cultured on rectangular L-polylysine-coated coverslips and loaded with lysocerebroside or lysosphingomyelin to a level of 150±20 pmoles per mg protein. The neurons were returned to complete Ham's high glucose medium/DMEM (1:1, vol:vol) and infiltrated with 5 μM fura 2/AM (Molecular Probes, Eugene, Oreg.). Fura 2 is a calcium chelator whose fluorescence absorbance shifts to shorter wavelength upon calcium ion binding is measurable in intact cells. A change in intraneuronal calcium ion concentration was monitored as a change in the fluorescence spectrum.
The neurons were exposed to 10 μM glutamate agonist (for example, ibotenate) for 30 minutes at 37° C. The coverslips were then transferred to quartz cuvettes in medium containing 250 μM sulfinpyrazone to prevent fura 2/AM diffusion. Fluorescence ratios were recorded in a Perkin-Elmer LS-5 Fluorescence Spectrometer thermostatted at 37° C. at excitation wavelengths of 340 and 380 nm, a nd emission measurement at 500 nm. Calcium ion signalling in agonist-stimulated neurons was 3.0±0.2 arbitrary units for ibotenate-exposed neurons.

cultured neurons = test: Lysosphingolipid content of cultured neurons by NBDZF fluorescence tagging; type: cell-based, chick; conditions: for lysosphingolipid content, 0 hours of incubation / lysosphingolipid content, 0.5 hours of incubation / lysosphingolipid content, 1.0 hours of incubation / lysosphingolipid content, 2.0 hours of incubation / lysosphingolipid content, 3.0 hours of incubation: Intact neurons, 10 μmolar exposure; for content of sphingosine in the neurons following exposure: exposure to 50 μM lysosphingolipid, 1 hour
Text: Agonist-binding to metabotropic receptors influences the levels of lysosphingolipid in neuronal membranes. However, there is no convenient methodology available for the measurement of lysosphingolipid content in cultured neurons. As a result, a sensitive method of fluorometric tracing has been devised and is described herein. The measurement of lysosphingolipid content in cultured neurons is based on the stable fluorescence-tagging procedure using 4-fluoro, 7-nitrobenzofuran (NBDZF) described by Nozowa et al J. Neurochem. 59:607-609, 1992). The procedure was applied to: resting neurons; neurons exposed to 100 μM metabotropic receptor agonist for 1 hour; resting neurons exogenously enriched in lysosphingolipids; and neurons exogenously enriched in lysosphingolipids and exposed to metabotropic receptor agonist for 1 hour. The neurons were scraped in batches of 107 (1 Petri dish, approximately 8 cm in diameter, is equivalent to 2 mg membrane protein) and subjected to anaylsis.
Total lipids were removed from the neuron samples by repeated extraction with chloroforn:methanol (2:1, vol:vol). The lysosphingolipids were separated from total neuronal lipid in 90±5% recovery yield (n=10) by the stepped chromatographic procedure of Van Veldhoven et al. (Anal. Biochem. 183:177-189, 1989). The recovered lysosphingolipids were stably tagged with NBDZF by the rapid procedure of Nozowa et al. (supra). The fluorescence tagged neuronal lysosphingolipids were separated in parallel with reference standards NBDZF-Sph, NBDZF-Psy, and NBDZF-Lsm on high performance silica gel thin layer chromatography plates with acetonitrile:H2 O (10:0.5, vol:vol). The highly fluorescent, well separated bands were scraped from the plate. The fluorescence tagged lysosphingolipids are eluted from the scraped silica gel with methanol:1 N HCl (1:0.02, vol:vol). The fluorescence tagged lysosphingolipid eluates were quantitated against reference standards by fluorescence measurement in a Perkin-Elmer LS-5 Fluorescence Spectrometer.
Sphingolipid content of neurons exposed to sphingosine, lysocerebroside, and lysosphingomyelin was examined as follows. A Petri dish containing approximately 107 neurons was incubated with 5 μCi [^3 H]myo-Ins in 3 ml DMEM overnight to prelabel the phosphoinositide InsP3 may contain. The neurons were washed with PBS and 3 ml of PBS containing 4.5 g/l glucose was added. Preparations of sphingosine, lysocerebroside, lysosphingomyelin (Sigma Chemical Co., St. Louis, Mo.) and combinations of each were prepared as the hydrochloride salt dissolved in PBS. The lysosphingolipids were added to the Petri dishes to produce a concentration ranging from 0-150 μM. […] Trypsinization removes non-specifically bound lysosphingolipids that may adhere to extracellular plasma membrane protein domain s. Non-specific adherence between cationic micelles of lysosphingolipids and the neuronal glycocatyx avoided by performing the experiments with lysosphingolipid concentrations below the critical micelle concentration. Neurons were analyzed for lysosphingolipid content as described above.

astrocytes = conditions: cited from earlier work

SMILES: CCCCCCCCCCCCC/C=C/[C@@H](O)[C@@H](N)COP(=O)([O-])OCC[N+](C)(C)C [lysosphingomyelin, sphingosyl phosphoryicholine]
- agonist-elicited calcium signalling in lysosphingolipid-loaded neurons [1]: no calcium signalling measurably over controls

SMILES: CCCCCCCCCCCCC/C=C/[C@@H](O)[C@@H](N)CO[C@@H]1O[C@H](CO)[C@H](O)[C@H](O)[C@H]1O [psychosine, lysocerebroside]
- lysosphingolipid content, 0 hours of incubation (cultured neurons): 25 ± 5 pmoles lysosphingolipid/mg pla
- lysosphingolipid content, 0.5 hours of incubation (cultured neurons): 35 ± 15 pmoles lysosphingolipid/mg pla
- lysosphingolipid content, 1.0 hours of incubation (cultured neurons): 45 ± 10 pmoles lysosphingolipid/mg pla
- lysosphingolipid content, 2.0 hours of incubation (cultured neurons): 80 ± 5 pmoles lysosphingolipid/mg pla
- lysosphingolipid content, 3.0 hours of incubation (cultured neurons): 80 ± 5 pmoles lysosphingolipid/mg pla
- content of sphingosine in the neurons following exposure (cultured neurons): 220±45 pmoles/mg protein
- InsP3 production in astrocytes (astrocytes): inhibited
- agonist-elicited calcium signalling in lysosphingolipid-loaded neurons [1]: no calcium signalling measurably over controls

SMILES: CCCCCCCCCCCCC/C=C/[C@@H](O)[C@@H](N)CO [sphingosine]
- lysosphingolipid content, 0 hours of incubation (cultured neurons): 85 ± 15 pmoles lysosphingolipid/mg pla
- lysosphingolipid content, 0.5 hours of incubation (cultured neurons): 85 ± 20 pmoles lysosphingolipid/mg pla
- lysosphingolipid content, 1.0 hours of incubation (cultured neurons): 110 ± 15 pmoles lysosphingolipid/mg pla
- lysosphingolipid content, 2.0 hours of incubation (cultured neurons): 105 ± 5 pmoles lysosphingolipid/mg pla
- lysosphingolipid content, 3.0 hours of incubation (cultured neurons): 115 ± 15 pmoles lysosphingolipid/mg pla
- content of sphingosine in the neurons following exposure (cultured neurons): 430±70 pmoles/mg protein
- InsP3 production in astrocytes (astrocytes): enhanced
